Assay [1] has as its system Peripheral Blood Mononuclear Cells + Umbilical Vein Endothelial Cells. Nature of the assay: BioMAP LPS system (TLR4), scoring of readout parameters. Type of assay: cell-based, human. The conditions noted are these: LPS (by position); desired change decrease. The text has this: (§1) Each screened compound is scored according to its modulation of the selected readout parameters. Compounds receive a positive score (score of 1) or negative score (score of 0) for each readout parameter set forth in Table 2 that is modulated in the desired direction. […] Parameters may be penalized by making the positive score a −1 for parameters where regulation is opposite to the desired direction.
(§2) Cell culture. Human umbilical vein endothelial cells (HUVEC) were pooled from multiple donors, cultured according to standard methods, and plated into microtiter plates at passage 4. Cell culture medium for all systems containing HUVEC included hydrocortisone. Coronary artery smooth muscle cells (CASM3C) and umbilical artery smooth muscle cells (HSM3C) were cultured according to standard procedures. Peripheral blood mononuclear cells (PBMC) were prepared from buffy coats from normal human donors according to standard methods. Monocyte-derived macrophages were differentiated in the presence of M-CSF for 7 d according to standard procedures. Human dermal fibroblasts were pooled from 3 donors, cultured according to standard methods, and plated confluent 24 h before stimulation. Cell culture medium for all systems containing fibroblasts and keratinocytes contained low hydrocortisone. Epidermal keratinocytes and bronchial epithelial cells from 3 donors were cultured according to standard procedures and pooled when plated into microtiter plates. For keratinocyte-fibroblast co-cultures, cells were plated simultaneously 24 h before stimulation. For bronchial epithelial cell-fibroblast co-cultures, fibroblasts were plated and cultured 48 before addition of epithelial cells, then cultured another 24 hr before stimulation. Concentrations/amounts of agents added to confluent microtiter plates to build each system: cytokines (IL-1β, 1 ng/ml; TNF-α, 5 ng/ml; IFN-γ, 20 ng/ml; IL-4, 5 ng/ml), activators (SAg, 20 ng/ml; histamine, 10 μM; zymosan, 10 μg/ml; or LPS, 2 ng/ml), growth factors (TGF-β, 5 ng/ml; EGF, bFGF, and PDGF-BB, 10 ng/ml), and PBMC (7.5×10^4 cells/well) or macrophages (3.5×10^4 cells/well).
(§3) Compounds. Compounds were prepared in the solvent directed, added 1 hr before stimulation of the cells, and were present during the 24 hr stimulation period for the measurement of parameters listed in Table 2. For proliferation, compounds added 1 hr before stimulation of the cells with cytokines, and were present during the 48 to 72 hr assay. If prepared in DMSO, the final concentration of solvent was 0.1% or less.
(§4) Readout Parameter Measurements. The levels of readout parameters were measured by ELISA. Briefly, microtiter plates are treated, blocked, and then incubated with primary antibodies or isotype control antibodies (0.01-0.5 microg/ml) for 1 hr. After washing, plates were incubated with a peroxidase-conjugated anti-mouse IgG secondary antibody or a biotin-conjugated anti-mouse IgG antibody for 1 hr followed by streptavidin-HRP for 30 min. Plates were washed and developed with TMB substrate and the absorbance (OD) was read at 450 nm (subtracting the background absorbance at 650 nm). Quantitation of TNF-alpha or PGE2 in the LPS system was done using a commercially available kit according to the manufacturer's directions. Proliferation of endothelial cells (HUVEC and CAEC), smooth muscle cells (SMC and CASMC), and PBMC (T cells) was quantitated by Alamar Blue reduction or SRB.
(§5) Data analysis. Mean OD values for each parameter were calculated for compounds run in duplicate. The mean value (or single well OD value) for each parameter in a treated sample was then divided by the mean value from an appropriate control to generate a ratio. All ratios were then log10 transformed. 95% significance prediction envelopes (grey shading in Figures) were calculated for historical controls.

The test system of assay [2] is Bronchial epithelial cells. Nature of the assay: BioMAP BE4T system (IL-4 + TNF-a), scoring of readout parameters. The class given is cell-based, human. Set-up: key: 1 = modulated in desired direction, 0 = not (−1 = opposite). The conditions noted are these: for PAI-1 score: desired change decrease; for EGFR score: desired no change or increase. How it is done: In the “BE4T” system, bronchial epithelial cells, usually primary human bronchial epithelial cells, are cultured in the presence of TNF-α and IL-4.
as §1, §2, §3, §4, §5

The subject of assay [3] is Fibroblasts. Nature of the assay: BioMAP HDFT system (TGF-β), scoring of readout parameters. Type of assay: cell-based, human. Also noted: key to PAI-1 score: 1 = modulated in desired direction, 0 = not (no penalties applied). The conditions noted are these: HDFT; desired change decrease.
From the text: as §1
(§6) Compounds were first selected to inhibit PAI-1 in the HDFT as an indication of TBF-b signaling inhibition without being cytotoxic. […] Blank spots in Table 3 were where parameter was not assayed. Penalties were not applied for this scoring.
as §2, §3, §4
Data analysis. Mean OD values for each parameter were calculated for compounds run in duplicate. The mean value (or single well OD value) for each parameter in a treated sample was then divided by the mean value from an appropriate control to generate a ratio.

For assay [4], the system named is Fibroblasts. The assay is described as follows: BioMAP HDF3CGF system (IL-1β + TNF-α + IFN-γ + EGF + bFGF + PDGFbb), scoring of readout parameters. The class given is cell-based, human. The conditions noted are these: for PAI-1 score: desired change decrease; for MMP-1 score: desired change increase; for EGFR score: desired no change or increase.
Procedure: In the “HDF-3CGF” system, dermal fibroblast cells, usually primary human dermal fibroblast cells are cultured alone or in the presence of lung epithelial cells, usually primary human lung epithelial cells, with two or more factors selected from: TNF, IL-1, IFNγ, EGF, bFGF+HSPG (heparan sulfate proteoglycan), and PDGFbb. In some embodiments three or more factors are present, four or more, five or more, or all six factors are present.
Human neonatal dermal fibroblasts (HDFn) or adult lung fibroblasts (HDFp) or fibroblasts from tissues such as liver, heart, or kidney are used. Cells are cultured at 3×10^4 cells/ml in DMEM/F12 (50/50) from Cellgro, supplemented with LSGS kit (from Cascade Biologics); fetal bovine serum, 2% v/v, hydrocortisone 100 nM, human epidermal growth factor 10 ng/ml, basic fibroblast growth factor 3 ng/ml and heparin 10 μg/ml, and penicillin/streptomycin amphotericin B solution (PSA), until confluency. Medium is replaced with DMEM/F12 with only penicillin/streptomycin amphotericin B solution (PSA), then 24 hours later, the following are applied:
After another 24, 48 or 72 hours incubation (37° C., 5% CO2) the cultures are evaluated for the following parameters: ICAM, VCAM, CD40, CD90, IP-10, MCP-1, Collagen I, Mig, m-CSF, TIMP-2, PAI-I, IL-8, Collagen III, HLA-DR, MMP-1, MMP-9, proliferation, TGF-b1, eotaxin-3, decorin, alpha-SMC, MLCK, I-TAC, EGFR, TIMP-1.
Cell culture. […] Human dermal fibroblasts were pooled from 3 donors, cultured according to standard methods, and plated confluent 24 h before stimulation. Cell culture medium for all systems containing fibroblasts and keratinocytes contained low hydrocortisone. […] Concentrations/amounts of agents added to confluent microtiter plates to build each system: cytokines (IL-1β, 1 ng/ml; TNF-α, 5 ng/ml; IFN-γ, 20 ng/ml; IL-4, 5 ng/ml), activators (SAg, 20 ng/ml; histamine, 10 μM; zymosan, 10 μg/ml; or LPS, 2 ng/ml), growth factors (TGF-β, 5 ng/ml; EGF, bFGF, and PDGF-BB, 10 ng/ml), and PBMC (7.5×10^4 cells/well) or macrophages (3.5×10^4 cells/well).
In assay [5] the test system is Fibroblasts. The assay is described as follows: BioMAP HDF3CT system (IL-1β + TNF-α + IFN-γ + TGF-β), scoring of readout parameters. The class given is cell-based, human.
From the text: as §1, §2, §3, §4, §5

The test system of assay [6] is Bronchial epithelial cells. The assay is described as follows: BioMAP BE3C system (IL-1β + TNF-α + IFN-γ), scoring of readout parameters. The class given is cell-based, human. The conditions noted are these: for PAI-1 score: desired change decrease.
From the text: as §1, §2, §3, §4, §5

Assay [7] deals with Umbilical Vein Endothelial Cells. Nature of the assay: BioMAP 3C system (IL-1β + TNF-α + IFN-γ), scoring of readout parameters. Type of assay: cell-based, human. The conditions noted are these: for HLA-DR score: desired change decrease; for uPAR score: desired change increase.
From the text: as §1, §2, §3, §4, §5

The subject of the next assay is human primary cells. Nature of the assay: Total score for desired parameter modulation over the BioMAP systems of Table 1. The class given is cell-based. The conditions noted are these: penalties not applied.
From the text: as §1
The relative importance of each parameter may be weighted by the screener to select those parameters of greatest interest for a particular application.
as §6
BioMAP Systems are designed to model complex human disease biology in a practical in vitro format. This is achieved by stimulating human primary cells (single cell type or defined mixtures of cell types) such that multiple disease-relevant signaling pathways are simultaneously active. The choice of cell types and stimulations is guided by the knowledge of disease biology and mechanisms. Incorporating appropriate cell types and stimulating signaling pathways relevant to disease states allows association of biological activities detected in BioMAP Systems with disease processes. Drug effects are then recorded by measuring biologically meaningful protein readouts that provide coverage of biological space of interest (e.g., inflammation, tissue remodeling) and allow discrimination between different drug classes tested.
as §2, §3
Readout Parameter Measurements. The levels of readout parameters were measured by ELISA.

For assay [8] the following is noted: PMID 17023731, PMID 8421998; cited from earlier work.

As for `Cc1cc(C2CCCCC2)n(O)c(=O)c1.NCCO` [Ciclopirox Ethanolamine], the TF score in assay [1] came to 0. For the same molecule, the uPA score in assay [2] is listed as 0. Moreover, the PAI-1 score in assay [2] was 0; with Fibroblasts [3], 1; in the assay with Fibroblasts [4] it was 1; in assay [6] it was 0. Also, the EGFR score in [2] was 1; in the assay on Fibroblasts [4], 0. The MMP-1 score (in the assay with Fibroblasts [4]; with Fibroblasts [5]; in assay [6]) was 0 throughout. Also, the HLA-DR score in assay [6] and in assay [7] was 0 each time. Besides, the uPAR score in assay [7] came out at 0. Moreover, the “Score (Fraction correctly modulated parameters out of 45-58 total)” value in the assay with human primary cells came out at 0.31.

`Cc1[nH]ccc2c1[nH]c1cc(=O)ccc12` [Harmol]: in assay [1], the TF score worked out at 1. Further, the uPA score in assay [2] is 0. Further, the PAI-1 score in assay [2] is recorded as 0; in the assay on Fibroblasts [3], 1; in the assay on Fibroblasts [4], 1; in [6] it was 1. For the same molecule, the EGFR score (in assay [2]; in the assay with Fibroblasts [4]) was 0 in each case. For the same molecule, the MMP-1 score (in the assay with Fibroblasts [4]; in the assay with Fibroblasts [5]; in assay [6]) was 0 in each case. Further, the HLA-DR score in assay [6] and in assay [7] was 0 each time. Further, the uPAR score in [7] turned out to be 0. Further, the “Score (Fraction correctly modulated parameters out of 45-58 total)” value in the assay with human primary cells was 0.29.

For `COc1cc(/C=C/C(=O)N2CCC=CC2=O)cc(OC)c1OC` [Piperlongumine], the TF score in assay [1] came to 1. Moreover, in [2], the uPA score is recorded as 0, the PAI-1 score amounted to 0 and the EGFR score was 0. For the same molecule, the PAI-1 score in the assay on Fibroblasts [3] is recorded as 1. In addition, in the assay on Fibroblasts [4], the PAI-1 score is listed as 1, the MMP-1 score is given as 0 and the EGFR score is 0. In addition, the MMP-1 score with Fibroblasts [5] amounted to 0. For the same molecule, in assay [6], the HLA-DR score was 0, the MMP-1 score is listed as 0 and the PAI-1 score was determined as 0. In assay [7], the HLA-DR score was found to be 0 and the uPAR score is on record as 0. Also, the “Score (Fraction correctly modulated parameters out of 45-58 total)” value in the assay on human primary cells is given as 0.47.

In the case of `C=C(NC(=O)C(=C)NC(=O)c1csc(C2=N[C@@H]3c4csc(n4)[C@H]4NC(=O)c5csc(n5)[C@H]([C@](C)(O)[C@@H](C)O)NC(=O)[C@H]5CSC(=N5)/C(=C/C)NC(=O)[C@H]([C@@H](C)O)NC(=O)c5csc(n5)[C@]3(CC2)NC(=O)[C@H](C)NC(=O)C(=C)NC(=O)[C@H](C)NC(=O)[C@H]([C@@H](C)CC)N[C@@H]2C=Cc3c([C@H](C)O)cc(nc3[C@H]2O)C(=O)O[C@@H]4C)n1)C(N)=O` [Thiostrepton], the TF score in assay [1] is reported as 1. In assay [2], the uPA score is listed as 0, the PAI-1 score was 0 and the EGFR score is recorded as 1. The molecule also displayed a PAI-1 score with Fibroblasts [3] of 1. Further, in the assay on Fibroblasts [4], the PAI-1 score is listed as 1, the MMP-1 score was 0 and the EGFR score is 0. Further, in the assay with Fibroblasts [5], the MMP-1 score is given as 0. In [6], the HLA-DR score was 0, the MMP-1 score is given as 0 and the PAI-1 score was 0. For the same molecule, in assay [7], the HLA-DR score was found to be 0 and the uPAR score turned out to be 0. Further, the “Score (Fraction correctly modulated parameters out of 45-58 total)” value with human primary cells came to 0.42.

As for `CC(=O)S[C@@H]1CC2=CC(=O)CC[C@]2(C)[C@H]2CC[C@@]3(C)[C@@H](CC[C@@]34CCC(=O)O4)[C@H]12` [spironolactone], the anti-fibrotic activity entry in assay [8] is “known anti-fibrotic activity”. Also, the “Score (Fraction correctly modulated parameters out of 45-58 total)” value in the assay on human primary cells is on record as “high scores”.

The values are drawn from US20100093613A1, “METHODS FOR IDENTIFYING AGENTS AND THEIR USE FOR THE PREVENTION OR STABILIZATION OF FIBROSIS” (priority 2007, published 2010).
